In patent US11021457B2, “Class of isoindolone-imide ring-1,3-dione-2-ene compounds, composition and use thereof” (WIGEN BIOMEDICINE TECHNOLOGY (SHANGHAI) CO., LTD., priority 2017, dated 2021):

Columns and labels:
Assay type in all cases: cell-based
Details in all cases: compound concentration 50 μM, 72 hours
K562 = test: Inhibition of tumor cell proliferation, CellTiter-Glo, K562
Description: (§1) For various cell lines, the corresponding complete medium was used, and culture was carried out in an incubator at 37° C. with 5% CO2. The cells were counted, and inoculated into a 96-well plate at 2000-10000 cells/100 μl per well according to the cell volume and growth rate. The suspended cells were treated immediately, and the adherent cells were treated after adherence. The CellTiter-Glo method was used to detect the changes in cell viability 72 hours after the administration, and the cell survival rate at different concentrations was calculated by a formula: Survival rate (%)=(RLU of treatment well−RLU of blank well)/(RLU of control well−RLU of blank well)×100.
(§2) Method for expressing the inhibitory activity of the compounds against the proliferation of tumor cells: Evaluation was made based on the cell survival rate at a compound concentration of 50 μM. 60≤survival rate (%)<90 is considered to have low inhibitory activity against the proliferation of tumor cells (+); 30<survival rate (%)≤60 is considered to have moderate inhibitory activity against the proliferation of tumor cells (++); and survival rate (%)≤30 is considered to have high inhibitory activity against the proliferation of tumor cells (+++).

BxPC-3 = test: Inhibition of tumor cell proliferation, CellTiter-Glo, BxPC-3
Description: as §1, §2

SU-DHL6 = test: Inhibition of tumor cell proliferation, CellTiter-Glo, SU-DHL6
Description: as §1, §2

MDA-MB-453 = test: Inhibition of tumor cell proliferation, CellTiter-Glo, MDA-MB-453
Description: as §1, §2

RPMI-8226 = test: Inhibition of tumor cell proliferation, CellTiter-Glo, RPMI-8226
Description: as §1, §2

A549 = test: Inhibition of tumor cell proliferation, CellTiter-Glo, A549
Description: as §1, §2

| Compound | Inhibitory activity against proliferation (cell survival rate) K562 (K562) | Inhibitory activity against proliferation (cell survival rate) BxPC-3 (BxPC-3) | Inhibitory activity against proliferation (cell survival rate) SU-DHL6 (SU-DHL6) | Inhibitory activity against proliferation (cell survival rate) MDA-MB-453 (MDA-MB-453) | Inhibitory activity against proliferation (cell survival rate) RPMI-8226 (RPMI-8226) | Inhibitory activity against proliferation (cell survival rate) A549 (A549) | cell survival rate (%) at 50 µM (K562; Homo sapiens, K562, read-out: Inhibitory activity against proliferation (cell survival rate) K562) [%] | cell survival rate (%) at 50 µM (BxPC-3; Homo sapiens, BXPC-3, read-out: Inhibitory activity against proliferation (cell survival rate) BxPC-3) [%] | cell survival rate (% of control) at 50 µM (SU-DHL6; Homo sapiens, SU-DHL-6, read-out: Inhibitory activity against proliferation (cell survival rate) SU-DHL6) [%] | cell survival rate (%) at 50 µM (MDA-MB-453; Homo sapiens, MDA-MB-453, read-out: Inhibitory activity against proliferation (cell survival rate) MDA-MB-453) [%] | cell survival rate (% of control) at 50 µM (RPMI-8226; Homo sapiens, RPMI-8226, read-out: Inhibitory activity against proliferation (cell survival rate) RPMI-8226) [%] | cell survival rate (% of control) at 50 µM (A549; Homo sapiens, A549, read-out: Inhibitory activity against proliferation (cell survival rate) A549) [%] |
| --- | --- | --- | --- | --- | --- | --- | --- | --- | --- | --- | --- | --- |
| O=C1CCC(N2C(=O)c3cccc(NC(=O)CCC(=O)OCCN4CCN(CCNC=C5C(=O)CC(c6ccccc6)CC5=O)CC4)c3C2=O)C(=O)N1 (stereo not drawn) [Compound 57] | + (60≤survival rate (%)<90) | + (60≤survival rate (%)<90) | +++ (survival rate (%)≤30) | + (60≤survival rate (%)<90) | + (60≤survival rate (%)<90) | + (60≤survival rate (%)<90) |  |  |  |  |  |  |
| O=C1CCC(N2Cc3c(NC=C4C(=O)CC(C(=O)Nc5ccc(Cl)cc5)CC4=O)cccc3C2=O)C(=O)N1 (stereo not drawn) [Compound 135] | ++ (30<survival rate (%)≤60) | + (60≤survival rate (%)<90) | +++ (survival rate (%)≤30) | +++ (survival rate (%)≤30) | ++ (30<survival rate (%)≤60) | +++ (survival rate (%)≤30) |  |  |  |  |  |  |
| O=C1CCC(N2Cc3c(NC(=O)c4cnc(NC=C5C(=O)CC(c6ccccc6)CC5=O)s4)cccc3C2=O)C(=O)N1 (stereo not drawn) [Compound 62] | + (60≤survival rate (%)<90) | ++ (30<survival rate (%)≤60) | ++ (30<survival rate (%)≤60) | +++ (survival rate (%)≤30) | +++ (survival rate (%)≤30) | ++ (30<survival rate (%)≤60) |  |  |  |  |  |  |
| COC(=O)c1ccc(C2CC(=O)C(=CNc3cccc4c3CN(C3CCC(=O)NC3=O)C4=O)C(=O)C2)cc1 (stereo not drawn) [Compound 33] | +++ (survival rate (%)≤30) | + (60≤survival rate (%)<90) | +++ (survival rate (%)≤30) | +++ (survival rate (%)≤30) | +++ (survival rate (%)≤30) | +++ (survival rate (%)≤30) |  |  |  |  |  |  |
| O=C1CCC(N2Cc3c(NC=C4C(=O)CC(c5cccc6sccc56)CC4=O)cccc3C2=O)C(=O)N1 (stereo not drawn) [Compound 27] | +++ (survival rate (%)≤30) | + (60≤survival rate (%)<90) | +++ (survival rate (%)≤30) | +++ (survival rate (%)≤30) | +++ (survival rate (%)≤30) | +++ (survival rate (%)≤30) |  |  |  |  |  |  |
| O=C1CCC(N2C(=O)c3cccc(NC=C4C(=O)CC(c5ccccc5)CC4=O)c3C2=O)C(=O)N1 (stereo not drawn) [Compound 2] | +++ (survival rate (%)≤30) | + (60≤survival rate (%)<90) | +++ (survival rate (%)≤30) | + (60≤survival rate (%)<90) | ++ (30<survival rate (%)≤60) | ++ (30<survival rate (%)≤60) |  |  |  |  |  |  |
| CC(C)Cn1cccc1C1CC(=O)C(=CNc2cccc3c2CN(C2CCC(=O)NC2=O)C3=O)C(=O)C1 (stereo not drawn) [Compound 116] | ++ (30<survival rate (%)≤60) | ++ (30<survival rate (%)≤60) | + (60≤survival rate (%)<90) | ++ (30<survival rate (%)≤60) | ++ (30<survival rate (%)≤60) | ++ (30<survival rate (%)≤60) |  |  |  |  |  |  |
| O=C1CCC(N2Cc3c(NC=C4C(=O)CC(c5ccccc5Cc5ccccc5)CC4=O)cccc3C2=O)C(=O)N1 (stereo not drawn) [Compound 35] | +++ (survival rate (%)≤30) | ++ (30<survival rate (%)≤60) | +++ (survival rate (%)≤30) | ++ (30<survival rate (%)≤60) | +++ (survival rate (%)≤30) | +++ (survival rate (%)≤30) |  |  |  |  |  |  |
| O=C1CCC(N2C(=O)c3cccc(OCCN4CCN(CCNC=C5C(=O)CC(c6ccccc6)CC5=O)CC4)c3C2=O)C(=O)N1 (stereo not drawn) [Compound 106] | + (60≤survival rate (%)<90) | ++ (30<survival rate (%)≤60) | + (60≤survival rate (%)<90) | ++ (30<survival rate (%)≤60) | + (60≤survival rate (%)<90) | +++ (survival rate (%)≤30) |  |  |  |  |  |  |
| O=C1CCC(N2C(=O)c3cccc(NCCN4CCN(CCNC=C5C(=O)CC(c6ccccc6)CC5=O)CC4)c3C2=O)C(=O)N1 (stereo not drawn) [Compound 109] | ++ (30<survival rate (%)≤60) | ++ (30<survival rate (%)≤60) | + (60≤survival rate (%)<90) | + (60≤survival rate (%)<90) | +++ (survival rate (%)≤30) | ++ (30<survival rate (%)≤60) |  |  |  |  |  |  |
| O=C1CCC(N2Cc3c(N/C=C4\C(=O)CC(c5ccccc5)NC4=O)cccc3C2=O)C(=O)N1 (stereo not drawn) [Compound 126] |  |  |  |  |  |  | 60 to 90 | 30 to 60 | 60 to 90 | 60 to 90 | ≤ 30 | 60 to 90 |
| O=C1CCC(N2Cc3c(NC(=O)c4ccc(CN5CCN(CCNC=C6C(=O)CC(c7ccccc7)CC6=O)CC5)cc4)cccc3C2=O)C(=O)N1 (stereo not drawn) [Compound 92] | + (60≤survival rate (%)<90) | + (60≤survival rate (%)<90) | +++ (survival rate (%)≤30) | ++ (30<survival rate (%)≤60) | +++ (survival rate (%)≤30) | + (60≤survival rate (%)<90) |  |  |  |  |  |  |
| O=C1CCC(N2Cc3ccc(NC=C4C(=O)CC(c5ccccc5)CC4=O)cc3C2=O)C(=O)N1 (stereo not drawn) [Compound 10] | ++ (30<survival rate (%)≤60) | ++ (30<survival rate (%)≤60) | + (60≤survival rate (%)<90) | + (60≤survival rate (%)<90) | ++ (30<survival rate (%)≤60) | + (60≤survival rate (%)<90) |  |  |  |  |  |  |
| O=C1CCC(N2Cc3c(NC(CO)=C4C(=O)CC(c5ccccc5)CC4=O)cccc3C2=O)C(=O)N1 (stereo not drawn) [Compound 74] | + (60≤survival rate (%)<90) | + (60≤survival rate (%)<90) | + (60≤survival rate (%)<90) | + (60≤survival rate (%)<90) | + (60≤survival rate (%)<90) | + (60≤survival rate (%)<90) |  |  |  |  |  |  |
| O=C1CCC(N2C(=O)c3cccc(NC(=O)c4ccc(CN5CCN(CCNC=C6C(=O)CC(c7ccccc7)CC6=O)CC5)cc4)c3C2=O)C(=O)N1 (stereo not drawn) [Compound 94] | +++ (survival rate (%)≤30) | + (60≤survival rate (%)<90) | +++ (survival rate (%)≤30) | +++ (survival rate (%)≤30) | +++ (survival rate (%)≤30) | +++ (survival rate (%)≤30) |  |  |  |  |  |  |
